The subject of experiment [1] is BCL-2 promoter G-quadruplex. The experiment in a line: CD melting experiment, BCL-2 G-quadruplex. It is filed as binding. The following applies: Tris-HCl buffer pH 7.4; 20 equivalents (20 μM) compound. The protocol:
CD-melting experiment was carried out following a published method without significant modification. BCL-2 promoter i-motif and G-quadruplex structures at a concentration of 5 μM were annealed in buffer at 95 °C for 10 min, and then cooled to room temperature. The annealed samples were incubated with B14 for 6 h, and then molar ellipticity at 287 nm for i-motif structure or 260 nm for G-quadruplex structure, where the CD value was the highest in our experiment, was measured over a temperature range of 20–90 °C at a heating rate of 0.5 °C/min. Tm values were determined and calculated through nonlinear regression curve fitting with software GraphPad Prism 9.0. (GraphPad Software Inc., California, USA).
Figure S6. CD melting experiments were performed to examine the effects of B14 and A22 on BCL-2 promoter i-motif and G-quadruplex. (A-H) CD melting experiments were performed for BCL-2 promoter i-motif or G-quadruplex in the absence or presence of B14 (2, 5, 20 equivalents) and A22 (20 equivalents). The oligonucleotide for BCL-2 i-motif was annealed in 1 X BPES buffer at pH 5.5, while the oligonucleotide for BCL-2 G-quadruplex was annealed in 20 mM Tris-HCl buffer with 20 mM NaCl at pH 7.4. The ΔTm values for the effects of B14 and A22 on BCL-2 promoter i-motif were determined to be 11.26 °C and 11.82 °C, respectively. […]

For experiment [2], the system named is APP/PS1 transgenic mice. In words: TUNEL staining of brain sections. It is filed as in vivo. The following applies: B14 10, 20, 40 mg/kg i.p. every other day. The source says: (§1) Five months old male APP/PS1 mice, weighing 25–33 g, were purchased from Guangdong Medical Laboratory Animal Center and housed in the Laboratory Animal Center of Sun Yat-sen University (Guangzhou, China) for experimentation. All procedures were approved by the Animal Care and Use Committee of Sun Yat-sen University and complied with legal requirements and national guidelines for the care and maintenance of laboratory animals (Approval No. SYSU-IACUC-2024-002032). The mice were housed in a specific pathogen-free environment with a controlled temperature of 22 ± 1 °C and a 12-h dark/light cycle. The mice were fed with a standard diet, and 30 mice were randomly divided into 6 groups (N = 5). Compound B14 was dissolved in saline and administered at doses of 10, 20, or 40 mg/kg. APP/PS1 male mice were grown until 6 months of age, and then injected intraperitoneally with compound B14 every other day for 60 days. Behavioral experiments were then conducted, and tissue specimens were collected for biochemical analysis.

The next experiment deals with (G2C4)6 promoter i-motif. The experiment in a line: SPR binding to (G2C4)6 promoter i-motif. The following applies: MES buffer pH 5.5.
For experiment [3], the system named is F-BCL-2 (BCL-2 IM) (DNA, i motif) CAGCCCCGCTCCCGCCCCCTTCCTCCCGCGCCCGCCCCT
The experiment in a line: MST, Hill fit. The following applies: K+ 100 mM KCl plus potassium phosphate; BPES buffer (30 mM phosphate, 1 mM EDTA), pH 5.5.

The target of experiment [4] is BCL-2 G-quadruplex (BCL-2 G4). The experiment in a line: MST binding to BCL-2 G-quadruplex. Conditions: Tris-HCl buffer pH 7.4. The procedure: After incubation of DNA with compound for 60 min, the sample was loaded in MST-grade glass capillaries. The intensity of the LED power was set at 20 %, and the MST laser was set at 40 %. The analyses were performed using a Monolith NT.115, and the fitting curve was obtained by using NT Analysis 1.5.41 via Hill fitting. The KD value represents the numeric equivalent of the concentration of B14 when the response is half of the plateau response (Rmax) of the fitting curve.

In experiment [5] the test system is APP/PS1 transgenic mice. In words: Nissl and H&E staining of hippocampus. In kind it is in vivo. Conditions: vs model group.
From the text: as §1
The mice were sacrificed, with their brains and organs isolated and embedded in paraffin. The brains and organs were then sectioned into 6 μm thin slices. These slices were subjected to H&E or Nissl staining (Servicebio, Guangzhou, China). The stained sections were subsequently imaged and analyzed by using microscopy.

Experiment [6] concerns APP/PS1 transgenic mice. The experiment in a line: Morris water maze (MWM). Conditions: B14 10, 20, 40 mg/kg i.p. every other day; vs model group. It is filed as in vivo.
From the text: as §1, with “APP/PS1 male mice were grown until 6 months of age, and then injected intraperitoneally with compound B14 every other day for 60 days. Behavioral experiments were then conducted, and tissue specimens were collected for biochemical analysis.” left out
The spatial memory and learning abilities of the mice were assessed using Morris water maze (MWM), novel object recognition (NOR) and nesting experiments (NBT). The anxiety and depressive behaviors were evaluated through the open field test (OFT) and elevated plus maze (EPM). […]
Morris water maze (MWM) system consisted of a heated circular pool, a target platform, and a video capture with analysis system. […] The time taken to find the platform (latency) was recorded. […] The platform was removed, and the mice were monitored for 60 seconds. […]

pKd: −log10 of the molar value.

With `O=C(CCN1CCOCC1)Nc1ccc2c(c1)c(=O)c1cc(NC(=O)CCN3CCOCC3)ccc1n2-c1ccc2occc2c1` [Compound B14], the “ΔTm (CD melting)” value in experiment [1] is −3.13 °C. Besides, the “proportion of TUNEL-positive neurons” value with APP/PS1 transgenic mice [2] is reported as “significantly decreased the proportion of TUNEL-positive neurons”. The pKd at (G2C4)6 promoter i-motif is 4.48. For the same molecule, the KD in experiment [3] amounted to 1.06 µM. Moreover, the pKd in experiment [4] is 4.22. In the experiment on APP/PS1 transgenic mice [5], the “hippocampal neuron damage (HE staining)” value is listed as “could reverse the damage of hippocampal neurons in mice”; the “number of Nissl bodies in CA1-CA4 and DG regions” value is “restored”. In addition, in the experiment on APP/PS1 transgenic mice [6], the “escape latency (MWM)” value is reported as “significantly short” and the “number for the mice to cross the platform (MWM)” value is “significantly increased”.

The record behind these values is PMC11982498 (Redox Biology, 2025).
